{"source": "patent US5919464A", "about": "“Treatment of aberrant cellular states with biomodulators” (University of New Mexico, priority 1993, dated 1999)", "key": {"canine glioma (CG) cells": {"test_system": "canine glioma (CG) cells", "assay": "NMR T-2* linewidth of canine glioma cells", "assay_type": "cell-based", "text": "These measurements correlate with the status of the cell surface oligosaccharide display. When the GFE decreases, as in cellular senescence, the linewidth measurements decrease, indicating an increased frequency of motion of unfrozen water on the surface. […] Additional data which supports this phenomenological connection between linewidth changes and the functional surface organization include; t-butanol extraction results in uniform decreases in the linewidth; biomodulator treatment of PDL-35 IMR-90s prevents the linewidth changes observed with the senescent populations; and the correlation between the cell surface organization changes and the linewidth data. […] The cells used for all these experiments are between passage 30 and passage 75.\nIn the growth transformed population we use the term unregulated to distinguish the models. In this case the linewidth for the CG controls are much higher than the IMR-90 values and the re-regulation results in a lowering of these values, approaching the data for the IMR-90s.\nThe cell surface oligosaccharide display was assessed by methods developed previously. In brief, cells from a sub-culturing were aliquotted into 96 well trays at 5×10^5 cells per ml, 100 μL aliquots. After 16 hours of culture the cells were washed, fixed, and blocked with 0.1% BSA/PBS. Optimal lectin concentrations (5 μg/ml)were used to give 80 to 90% saturation of the available sites. Three carbohydrate ligands at 10 μg concentrations in triplicate or quadruplicate were then used to prepare competition curves for the lectin binding. The Bound over Free (B/F) ratio was calculated and the Ligand microprocessor program was used to determine the optimal fit of the data to a polynomial generated model. The Gibb's Free Energy (GFE) was calculated from the Scatchard data on the competition assay by the following equation: GFE=-RT ln Kequil. The proton NMR linewidth measurements were conducted as described previously."}, "α-mannosidase II": {"test_system": "α-mannosidase II", "settings": "in words; cited from earlier work"}, "solid tumor models": {"test_system": "solid tumor models", "settings": "in words; cited from earlier work"}}, "note": "“Also recorded” adds a separate entry of the source.", "data": [{"smiles": "O[C@H]1[C@H]2[C@H](O)CCCN2C[C@H]1O", "note": "[Swainsonine, swainsonine]", "values": [{"measurement": "T-2* linewidth", "setting": "canine glioma (CG) cells; 233 K, four weeks of treatment, mean ± SD", "value": "300 ± 8"}, {"measurement": "linewidth change versus controls", "setting": "canine glioma (CG) cells; after one treatment / one week, in words, listed as Sw", "value": "significant (P>0.01]) decreases in linewidth; also recorded: significantly (P>0.01) different from those of the untreated controls"}, {"measurement": "linewidth after treatment withdrawal versus control", "setting": "canine glioma (CG) cells; four weeks treatment, one week withdrawal, in words", "value": "still significantly different from control values"}, {"measurement": "α-mannosidase II", "setting": "α-mannosidase II", "value": "inhibition of α-mannosidase II"}, {"measurement": "growth of other solid tumors", "setting": "solid tumor models", "value": "delay growth in several other solid tumor models"}]}]}
